The target in experiment [1] is human 11β-HSD1 (Homo sapiens (Human), UniProt P28845). Description: HTRF cortisol assay in 11β-HSD1 overexpressing CHO cells. It counts as cell-based. The note with it: human 11β-HSD1 overexpressing CHO cells, 160 nM cortisone, 3 hr at 37° C., read-out: IC50(nM) to 11β-HSD-1. How it is done:
The full-length cDNA molecule coding for human or mouse 11β-HSD1 was inserted into pcDNA (Promega) as mammalian expression vectors and transformed into CHO cells for 5 hr using Lipofectamine plus (Invitrogen) in accordance with manufacturer's manual, followed by stabilization for 48 hr. The CHO cells were incubated with 0.8 μg/ml puromycin (Sigma) once every three days for two weeks to obtain human or mouse 11β-HSD1 overexpressing cells. The cells were grown and frozen, and thawed for enzyme inhibition tests.
The in vitro inhibitory activities of the novel compounds to human 11β-HSD1 were evaluated in accordance with homogenous time-resolved fluorescence (HTRF).
The human or mouse 11β-HSD1 overexpressing cells were subcultured at the number of 2.5×10^4 cells in 96-well plate and stabilized for 24 hr. […] Then, samples of the medium (10 μl) were transferred to 384-well plate and the amounts of cortisol produced were measured using a cortisol kit (Cisbio international) in accordance with manufacturer's instruction. […] Delta F value=(Ratio of compounds−Ratio of negative)/Ratio of negative×100 2. Normalized value=Delta F value of compounds−Delta F value of control 3. % inhibition=Normalized value of compounds/Normalized value of background×100 4.
A general note: TR-FRET usually uses a lanthanide donor and a delayed reading to cut background.

The target of experiment [2] is human 11β-HSD-2 (Homo sapiens (Human), UniProt P80365). Kind of experiment: HTRF analysis of inhibition of 11β-HSD-2. It counts as cell-based. The note with it: human 11β-HSD-2, HTRF.

IC50 data for 23 compounds are collected here from patent US9073906B2, “Sulfamide derivative having an adamantyl group and its pharmaceutically acceptable salt” (KOREA RESEARCH INSTITUTE OF CHEMICAL TECHNOLOGY, priority 2011, dated 2015).

A word on the IC50: it is the concentration needed to halve the response being measured.

A value given as a limit tells only on which side of the number the result lay.

Sequence of human 11β-HSD-2 (P80365 whole entry): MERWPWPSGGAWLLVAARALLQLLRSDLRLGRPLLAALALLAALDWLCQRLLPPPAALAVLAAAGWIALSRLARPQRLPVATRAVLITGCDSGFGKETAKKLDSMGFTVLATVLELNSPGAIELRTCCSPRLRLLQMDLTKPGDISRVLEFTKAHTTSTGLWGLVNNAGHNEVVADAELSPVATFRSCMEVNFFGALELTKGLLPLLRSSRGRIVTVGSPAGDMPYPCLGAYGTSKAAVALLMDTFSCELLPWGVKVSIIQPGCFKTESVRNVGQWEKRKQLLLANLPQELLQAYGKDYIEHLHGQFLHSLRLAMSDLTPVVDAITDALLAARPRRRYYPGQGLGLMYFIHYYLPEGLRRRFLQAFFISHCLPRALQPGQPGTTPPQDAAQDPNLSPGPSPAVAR
Sequence of human 11β-HSD1 (P28845 whole entry): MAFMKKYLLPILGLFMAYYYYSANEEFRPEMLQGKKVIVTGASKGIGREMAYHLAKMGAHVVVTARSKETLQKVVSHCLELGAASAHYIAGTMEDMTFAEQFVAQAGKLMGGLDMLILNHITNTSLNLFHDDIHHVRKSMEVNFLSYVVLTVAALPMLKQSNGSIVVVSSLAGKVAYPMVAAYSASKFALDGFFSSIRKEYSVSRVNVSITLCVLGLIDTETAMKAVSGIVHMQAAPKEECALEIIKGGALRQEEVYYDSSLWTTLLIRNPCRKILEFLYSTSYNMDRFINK

As to `NC(=O)C12CC3CC(C1)C(NC(=O)CN1CCCN(c4ccccc4)S1(=O)=O)C(C3)C2` (centres unmarked) [Compound 60, 4-(2-(1,1-dioxido-6-phenyl-1,2,6-thiadiazinan-2-yl)acetamido)adamantan-1-carboxamide], the IC50 was 17 nM in experiment [1] and over 10000 nM in experiment [2].

Regarding `CN(CC(=O)NC1C2CC3CC1CC(C(N)=O)(C3)C2)S(=O)(=O)N(C)c1c(Cl)cc(Cl)cc1Cl` (centres unmarked) [Compound 123, 4-(2-(methyl(N-methyl-N-(2,4,6-trichlorophenyl)sulfa-moyl)amino)acetamido) adamantan-1-carboxamide], the results for the IC50 in experiment [1] and in experiment [2] were 0.8 nM and over 10000 nM, respectively.

As to `NC(=O)C12CC3CC(C1)C(NC(=O)CN1CCCCN(c4c(Cl)cc(Cl)cc4Cl)S1(=O)=O)C(C3)C2` (centres unmarked) [Compound 122, 4-(2-(1,1-dioxido-7-(2,4,6-trichlorophenyl)-1,2,7-thiadiazepane-2-yl)acetamido) adamantan-1-carboxamide], the IC50 in experiment [1] is 0.4 nM; in experiment [2], over 10000 nM.

For the compound `CC1CN(CC(=O)NC2C3CC4CC2CC(C(N)=O)(C4)C3)S(=O)(=O)N(c2c(Cl)cc(C(F)(F)F)cc2Cl)C1` (centres unmarked) [Compound 183, (E) 4-(2-(6-(2,6-dichloro-4-(trifluoromethyl)phenyl)-4-methyl-1,1-dioxido-1,2,6-thiadiazinan-2-yl)acetamido)adamantan-1-carboxamide], the 50% inhibitory concentration (IC50) is 4.8 nM in experiment [1] and over 10000 nM in experiment [2].

As to `CC1CN(CC(=O)NC2C3CC4CC2CC(C(N)=O)(C4)C3)S(=O)(=O)N(c2c(Cl)cc(Cl)cc2Cl)C1` (centres unmarked) [Compound 156, 4-(2-(4-methyl-1,1-dioxido-6-(2,4,6-trichlorophenyl)-1,2,6-thiadiazinan-2-yl)acetamido)adamantan-1-carboxamide], the figures for the IC50 in experiment [1] and in experiment [2] were 1 nM and over 10000 nM, respectively.

In the case of `CC1(C)CN(CC(=O)NC2C3CC4CC2CC(C(N)=O)(C4)C3)S(=O)(=O)N(c2c(Cl)cc(Cl)cc2Cl)C1` (centres unmarked) [Compound 177, 4-(2-(4,4-dimethyl-1,1-dioxido-6-(2,4,6-trichlorophenyl)-1,2,6-thiadiazinan-2-yl)acetamido)adamantan-1-carboxamide], the IC50 in experiment [1] is 5 nM; in experiment [2], over 10000 nM.

For `O=C(CN1CCCN(Cc2ccccc2)S1(=O)=O)NC1C2CC3CC(C2)CC1C3` (centres unmarked) [Compound 5, N-(adamantan-2-yl)-2-(6-benzyl-1,1-dioxido-1,2,6-thiadiazinan-2-yl)acetamide], the results for the IC50 in experiment [1] and in experiment [2] were 360 nM and over 10000 nM, respectively.

For `Cc1ccc(N2CCCN(CC(=O)NC3C4CC5CC(C4)CC3C5)S2(=O)=O)cc1` (centres unmarked) [Compound 24, N-(adamantan-2-yl)-2-(1,1-dioxido-6-(p-tolyl)-1,2,6-thiadiazinan-2-yl)acetamide], the IC50 in experiment [1] is 3370 nM; in experiment [2] it was over 10000 nM.

On to `C[C@H]1CN(CC(=O)NC2C3CC4CC2CC(C(N)=O)(C4)C3)S(=O)(=O)N(c2c(Cl)cc(C(F)(F)F)cc2Cl)C1` (stereo partly drawn) [Compound 195, 4-(2-((S)-6-(2,6-dichloro-4-(trifluoromethyl)phen-yl)-4-methyl-1,1-dioxido-1,2,6-thiadiazinan-2-yl)acetamido)adamantan-1-carboxamide], for which the IC50 in experiment [2] was over 10000 nM.

As for `CC1CCN(c2c(Cl)cc(Cl)cc2Cl)S(=O)(=O)N1CC(=O)NC1C2CC3CC1CC(C(N)=O)(C3)C2` (centres unmarked) [Compound 128, 4-(2-(3-methyl-1,1-dioxido-6-(2,4,6-trichlorophenyl)-1,2,6-thiadiazinan-2-yl)acetamido) adamantan-1-carboxamide], the IC50 in experiment [1] was 0.1 nM; in experiment [2], over 10000 nM.

As to `NC(=O)C12CC3CC(C1)C(NC(=O)CN1CC4(CC4)CN(c4c(Cl)cc(Cl)cc4Cl)S1(=O)=O)C(C3)C2` (centres unmarked) [Compound 176, 4-(2-(6,6-dioxido-7-(2,4,6-trichlorophenyl)-6-thia-5,7-diazaspiro[2,5]octane-5-yl)acetamido)adamantan-1-carboxamide], the IC50 is 5 nM in experiment [1] and over 10000 nM in experiment [2].

As for `CC(C)(C)OC(=O)N1CCCN(CC(=O)NC2C3CC4CC(C3)CC2C4)S1(=O)=O` (centres unmarked) [Compound 3, tert-butyl 6-(2-(adamantan-2-ylamino)-2-oxoethyl)-1,2,6-thiadiazinan-2-carboxylate 1,1-dioxide], the IC50 was 363 nM in experiment [1] and over 10000 nM in experiment [2].

In experiment [2], `NC(=O)[C@]12CC3CC(C1)[C@@H](NC(=O)CN1CC(F)(F)CN(c4c(Cl)cc(Cl)cc4Cl)S1(=O)=O)C(C3)C2` [Compound 172, 4-(2-(4,4-difluoro-1,1-dioxido-6-(2,4,6-trichlorophenyl)-1,2,6-thiadiazinan-2-yl)acetamido)adamantan-1-carboxamide (E form)] came in with an IC50 of over 10000 nM.

Consider `NC(=O)C12CC3CC(C1)C(NC(=O)CN1CCCN(c4ccc(F)cc4)S1(=O)=O)C(C3)C2` (centres unmarked) [Compound 44, 4-(2-(6-(4-fluorophenyl)-1,1-dioxido-1,2,6-thiadiazinan-2-yl)acetamido)adamantan-1-carboxamide], for which the IC50 in experiment [1] is 79 nM; in experiment [2], over 10000 nM.

Turning to `NC(=O)C12CC3CC(C1)C(NC(=O)CN1CCCN(c4c(Cl)cc(Cl)cc4Cl)S1(=O)=O)C(C3)C2` (centres unmarked) [Compound 88, 4-(2-(1,1-dioxido-6-(2,4,6-trichlorophenyl)-1,2,6-thiadiazinan-2-yl)acetamido)adamantan-1-carboxamide], the IC50 in experiment [1] was 0.2 nM; in experiment [2], over 10000 nM.

For the compound `NC(=O)C12CC3CC(C1)C(NC(=O)CN1CCCN(c4c(F)cc(F)cc4F)S1(=O)=O)C(C3)C2` (centres unmarked) [Compound 89, 4-(2-(1,1-dioxido-6-(2,4,6-trifluorophenyl)-1,2,6-thiadiazinan-2-yl)acetamido)adamantan-1-carboxamide], the IC50 in experiment [1] was 20 nM; in experiment [2], over 10000 nM.

`NC(=O)C12CC3CC(C1)C(NC(=O)CN1CCN(c4c(Cl)cc(Cl)cc4Cl)S1(=O)=O)C(C3)C2` (centres unmarked) [Compound 124, 4-(2-(1,1-dioxido-5-(2,4,6-trichlorophenyl)-1,2,5-thiadiazolidin-2-yl)acetamido) adamantan-1-carboxamide]: the results for the IC50 in experiment [1] and in experiment [2] were 187 nM and over 10000 nM, respectively.

As to `O=C(CN1CCCN(Cc2ccccc2F)S1(=O)=O)NC1C2CC3CC(C2)CC1C3` (centres unmarked) [Compound 14, N-(adamantan-2-yl)-2-(6-(2-fluorobenzyl)-1,1-dioxido-1,2,6-thiadiazinan-2-yl)acetamide], the IC50 in experiment [1] was 1660 nM; in experiment [2] it was over 10000 nM.

For the compound `C[C@@H]1CN(CC(=O)NC2C3CC4CC2CC(C(N)=O)(C4)C3)S(=O)(=O)N(c2c(Cl)cc(C(F)(F)F)cc2Cl)C1` (stereo partly drawn) [Compound 196, 4-(2-((R)-6-(2,6-dichloro-4-(trifluoromethyl)phen-yl)-4-methyl-1,1-dioxido-1,2,6-thiadiazinan-2-yl)acetamido)adamantan-1-carboxamide], the IC50 in experiment [1] was 1.3 nM; in experiment [2] it was over 10000 nM.

In the case of `O=C(CN1CCCN(c2ccccc2)S1(=O)=O)NC1C2CC3CC(C2)CC1C3` (centres unmarked) [Compound 2, N-(adamantan-2-yl)-(1,1-dioxido-6-phenyl-1,2,6-thiadiazinan-2-yl)acetamide], the IC50 is 12 nM in experiment [1] and over 10000 nM in experiment [2].

Take `NC(=O)C12CC3CC(C1)C(NC(=O)CN1CCCN(c4ccccc4F)S1(=O)=O)C(C3)C2` (centres unmarked) [Compound 59, 4-(2-(6-(2-fluorophenyl)-1,1-dioxido-1,2,6-thiadiazinan-2-yl)-acetamido)adamantan-1-carboxamide]: the IC50 in experiment [1] is 14 nM; in experiment [2] it was over 10000 nM.

With `NC(=O)C12CC3CC(C1)C(NC(=O)CN1CCCN(c4cccc(F)c4)S1(=O)=O)C(C3)C2` (centres unmarked) [Compound 69, 4-(2-(6-(3-fluorophenyl)-1,1-dioxido-1,2,6-thiadiazinan-2-yl)acetamido)adamantan-1-carboxamide], the IC50 in experiment [1] is 3 nM; in experiment [2] it was over 10000 nM.

On to `C=C1CN(CC(=O)NC2C3CC4CC2CC(C(N)=O)(C4)C3)S(=O)(=O)N(c2c(Cl)cc(Cl)cc2Cl)C1` (centres unmarked) [Compound 175, 4-(2-(4-methylene-1,1-dioxido-6-(2,4,6-trichlorophenyl)-1,2,6-thiadiazinan-2-yl)acetamido)adamantan-1-carboxamide], for which the IC50 in experiment [1] was 14 nM; in experiment [2], over 10000 nM.
